Laboratory results taken from PMC9238271, “The quorum sensing peptide EntF* promotes colorectal cancer metastasis in mice: a new factor in the host-microbiome interaction” (BMC Biology, 2022).

Legend:
[1] = test system: E-cadherin expression in HCT-8 cells; assay: Western blot of E-cadherin expression, HCT-8 cells (EntF*, alanine and D-amino acid analogs); type: cell-based
Experimental: (§1) HCT-8, HT-29, and HT-116 cells were grown in DMEM medium supplied with 10% fetal bovine serum (FBS) and 1% penicillin-streptomycin. Caco-2 cells were grown in DMEM medium supplied with 10% FBS, 1% non-essential amino acid NEAA), and 1% penicillin-streptomycin. Cells were cultured at 37 °C and 5% CO2. As cells reached confluency, they were detached using 0.25% Trypsin-EDTA.
(§2) For Western blot analyses, HCT-8 (n = 15), HCT-116 (n = 12), Caco-2 (n = 6), and HT-29 (n = 12) cells were seeded in 6-well plates at a density of 1 × 10^6 cells/well. Twenty-four hours after seeding, all cell lines were treated with 1 μM EntF* or a placebo solution. HCT-8 cells were also tested for responsiveness to 1 μM EntF* synthetic alanine-derived analogs. For antagonist activity analysis, HCT-8 cells were treated with 1 μM Nef-M1 or 1 μM EntF*A1 alone or in combination with 500 nM EntF*. After 24 h, cells were detached from the surface and lysed in RIPA buffer (Thermo Scientific). Protein concentration was determined using the modified Lowry protein assay kit (Thermo Scientific), according to the manufacturer’s instructions. Protein samples were diluted to the same concentration (4 μg/μL) with water and diluted again 1:1 using 2x Laemmli buffer. After that, samples were boiled for 5 min at 95 °C to denature proteins and centrifuged for 5 min at 16,000g; supernatants were used for Western blot analyses. Equal amounts of total protein (20 μg/lane) were separated by SDS-PAGE on an Any kD^TM gel (Bio-Rad ) and then transferred to a PVDF membrane. Before incubation with antibodies, non-specific binding sites on the membranes were blocked using 5% skimmed milk solution (1 h). TBS buffer with 0.05% Tween 20 was used for all washing steps. Membranes were incubated overnight at 4 °C with an anti-E-cadherin primary antibody (1/1000 dilution). An HRP-conjugated anti-rabbit antibody (1/2000 dilution, 1 h incubation) was used for chemiluminescent detection. Membranes were incubated with the detection substrate for 5 min and signal detection was performed using the ChemiDoc EZ imager and Image Lab software (Bio-Rad). Signal intensity was normalized against the total protein content in each lanes.
A quantitative approach was used to evaluate the importance of each amino acid, where the Fisher’s LSD p-values of (1) multiple comparisons between EntF* and the alanine (ALA) scan and (2) multiple comparisons between different peptides of the ALA scan are combined. Subsequently, based on the combined P-score, the amino acids were classified in 5 classes using a hierarchical cluster analysis and confirmed using the Jenks natural breaks algorithm with K = 5. CombinedPscore=1-PPBSvsALAscan*PEntF*vsALAscan

[2] = test system: E-cadherin expression in HCT-116 cells; assay: Western blot of E-cadherin expression, CXCR4-negative HCT-116 cells; type: cell-based
Experimental: as §1, §2

## CC(C)C[C@@H]1NC(=O)[C@H](CO)NC(=O)[C@H](Cc2ccccc2)NC(=O)[C@H](C(C)C)NC(=O)[C@@H](NC(=O)[C@H](CCC(=O)O)NC(=O)[C@@H](NC(=O)[C@H](CC(C)C)NC(=O)[C@H](CC(N)=O)NC(=O)[C@@H](N)CO)C(C)C)CSSC[C@@H](C(=O)N[C@@H](CC(N)=O)C(=O)O)NC(=O)[C@H](CCCCN)NC(=O)[C@H](CCCCN)NC(=O)[C@H](Cc2ccccc2)NC1=O (single isomer, unassigned) [EntF*]
[1]; 24 h, n = 15
  effect on E-cadherin levels in HCT-8 cells: significant decrease
[1]; Ala-scan sheet, Blot 19 (single blot), chemiluminescence band, placebo lane = 100
  Relative E-cadherin decrease: 54.8007
[1]; Ala-scan sheet, Blot 20 (single blot), chemiluminescence band, placebo lane = 100
  E-cadherin expression relative to H2O control (= 100): 67.4208
[1]; Ala-scan sheet, Blot 21 (single blot), chemiluminescence band, placebo lane = 100
  Relative E-cadherin decrease: 65.0177
[1]; Ala-scan sheet, Blot 24 (single blot), chemiluminescence band, Norm. Vol. relative to placebo lane = 100
  E-cadherin expression relative to H2O control (= 100): 28.5
[1]; Ala-scan sheet, Blot 25 (single blot), chemiluminescence band, Norm. Vol. relative to placebo lane = 100
  E-cadherin expression relative to H2O control (= 100): 21.0
[1]; Ala-scan sheet, Blot 26 (single blot), chemiluminescence band, Norm. Vol. relative to placebo lane = 100
  E-cadherin expression relative to H2O control (= 100): 35.9
[1]; Ala-scan sheet, Blot 27 (single blot), chemiluminescence band, Norm. Vol. relative to placebo lane = 100
  E-cadherin expression relative to H2O control (= 100): 217.9
[1]; Ala-scan, Blot 11 (single blot replicate), normalized band volume relative to Placebo = 100.0
  E-cadherin expression relative to H2O control (= 100): 93.8
[1]; Ala-scan, Blot 12 (single blot replicate), normalized band volume relative to Placebo = 100.0
  E-cadherin expression relative to H2O control (= 100): 85.9
[1]; Ala-scan, Blot 13 (single blot replicate), normalized band volume relative to Placebo = 100.0
  E-cadherin expression relative to H2O control (= 100): 94.6
[1]; Ala-scan, Blot 14 (single blot replicate), normalized band volume relative to Placebo = 100.0
  E-cadherin expression relative to H2O control (= 100): 84.9
[1]; Ala-scan, Blot 18 (single blot replicate), normalized band volume relative to Placebo = 100.0
  E-cadherin expression relative to H2O control (= 100): 74.8
[1]; D-scan, Blot 1 (replicate), Norm. Vol. relative to H2O lane = 100.0, chemiluminescence
  E-cadherin expression relative to H2O control (= 100): 92.9
[1]; D-scan, Blot 2 (replicate), Norm. Vol. relative to H2O lane = 100.0, chemiluminescence
  E-cadherin expression relative to H2O control (= 100): 90.1
[1]; D-scan, Blot 3 (replicate), Norm. Vol. relative to H2O lane = 100.0, chemiluminescence
  E-cadherin expression relative to H2O control (= 100): 85.4
[1]; D-scan, Blot 4 (replicate), Norm. Vol. relative to H2O lane = 100.0, chemiluminescence
  E-cadherin expression relative to H2O control (= 100): 88.3
[1]; D-scan, Blot 6 (replicate), Norm. Vol. relative to H2O lane = 100.0, chemiluminescence
  E-cadherin expression relative to H2O control (= 100): 95.4
[1]; D-scan, Blot 7 (replicate), Norm. Vol. relative to H2O lane = 100.0, chemiluminescence
  E-cadherin expression relative to H2O control (= 100): 92.1
[1]; D-scan, Blot 8 (replicate), Norm. Vol. relative to H2O lane = 100.0, chemiluminescence
  E-cadherin expression relative to H2O control (= 100): 99.2
[1]; D-scan, Blot 9 (replicate), Norm. Vol. relative to H2O lane = 100.0, chemiluminescence
  E-cadherin expression relative to H2O control (= 100): 67.6
[1]; D-scan, Blot 10 (replicate), Norm. Vol. relative to H2O lane = 100.0, chemiluminescence
  E-cadherin expression relative to H2O control (= 100): 83.3
[1]; D-scan, Blot 11 (replicate), Norm. Vol. relative to H2O lane = 100.0, chemiluminescence
  E-cadherin expression relative to H2O control (= 100): 74.5
[1]; D-scan, Blot 12 (replicate), Norm. Vol. relative to H2O lane = 100.0, chemiluminescence
  E-cadherin expression relative to H2O control (= 100): 74.5
[1]; H2O = 100.0, CXCL12 at 10µg/ml, mean of the replicates (row r47, unlabelled; SEM in row below)
  E-cadherin expression relative to H2O control (= 100): 85.8
[1]; H2O = 100.0, CXCL12 at 10µg/ml, replicate 1 (row r35)
  E-cadherin expression relative to H2O control (= 100): 92.9
[1]; H2O = 100.0, CXCL12 at 10µg/ml, replicate 2 (row r36)
  E-cadherin expression relative to H2O control (= 100): 90.1
[1]; H2O = 100.0, CXCL12 at 10µg/ml, replicate 3 (row r37)
  E-cadherin expression relative to H2O control (= 100): 85.4
[1]; H2O = 100.0, CXCL12 at 10µg/ml, replicate 4 (row r38)
  E-cadherin expression relative to H2O control (= 100): 88.3
[1]; H2O = 100.0, mean of the replicates (row r29, unlabelled; SEM in row below)
  Ala scan: Relative E-cadherin decrease: 62.0
[1]; H2O = 100.0, replicate 5 (row r39)
  E-cadherin expression relative to H2O control (= 100): 95.4
[1]; H2O = 100.0, replicate 6 (row r40)
  E-cadherin expression relative to H2O control (= 100): 92.1
[1]; H2O = 100.0, replicate 7 (row r41)
  E-cadherin expression relative to H2O control (= 100): 99.2
[1]; H2O = 100.0, replicate 8 (row r42)
  E-cadherin expression relative to H2O control (= 100): 67.6
[1]; H2O = 100.0, replicate 9 (row r43)
  E-cadherin expression relative to H2O control (= 100): 83.3
[1]; H2O = 100.0, replicate 10 (row r44)
  E-cadherin expression relative to H2O control (= 100): 74.5
[1]; H2O = 100.0, replicate 11 (row r45)
  E-cadherin expression relative to H2O control (= 100): 74.5
[1]; HCT-8 cells, average (EntF* n = 15, CXCL12 n = 4)
  Relative E-cadherin decrease in different cell lines, Average: 62.0
[2]; CXCR4-negative cells, 24 h, n = 12
  effect on E-cadherin expression in HCT-116 cells: no decrease
[2]; HCT-116 cells, average of n = 12
  Relative E-cadherin level: 103.8
